In patent US10294202B2, “Pyrrolidinones as herbicides” (FMC Corporation, priority 2013, dated 2019):

What was measured:
Test in all cases: Test E preemergence herbicide test
Parameters in all cases: key: 0 = no effect, 100 = complete control
ragweed = format: in vivo, Ambrosia elatior
Text: (§1) Seeds of plant species selected from corn (Zea mays), soybean (Glycine max), velvetleaf (Abutilon theophrasti), lambsquarters (Chenopodium album), wild poinsettia (Euphorbia heterophylla), pigweed, palmer (palmer pigweed, Amaranthus palmeri), waterhemp (common waterhemp, Amaranthus rudis), surinam grass (Brachiaria decumbens), crabgrass, large (large crabgrass, Digitaria sanguinalis), crabgrass, Brazil (Brazilian crabgrass, Digitaria horizontalis), panicum, fall (fall panicum, Panicum dichotomiflorum), foxtail, giant (giant foxtail, Setaria faberii), foxtail, green (green foxtail, Setaria viridis), goosegrass (Eleusine indica), johnsongrass (Sorghum halepense), ragweed (common ragweed, Ambrosia elatior), barnyardgrass (Echinochloa crus-galli), sandbur (southern sandbur, Cenchrus echinatus), arrowleaf […] rhombifolia), ryegrass, Italian (Italian ryegrass, Lolium multiflorum), dayflower, VA (Virginia dayflower, Commelina virginica), field bindweed (Convolvulus arvensis), morningglory (Ipomoea coccinea), nightshade (eastern black nightshade, Solanum ptycanthum), kochia (Kochia scoparia), nutsedge, yellow (yellow nutsedge, Cyperus esculentus), cocklebur (common cocklebur, Xanthium strumarium), smartweed (ladysthumb smartweed, Polygonum Persicaria) and beggarticks (hairy beggarticks, Bidens pilosa), were planted into a silt loam soil and treated preemergence with test chemicals formulated in a non-phytotoxic solvent mixture which included a surfactant. Treated plants and controls were maintained in a greenhouse for 21 days, after which time all species were compared to controls and visually evaluated. Plant response ratings, summarized in Table E, are based on a scale of 0 to 100 where 0 is no effect and 100 is complete control. A dash (-) response means no test result.

panicum, fall = format: in vivo, Panicum dichotomiflorum
Text: as §1

dayflower, VA = format: in vivo, Commelina virginica
Text: as §1

waterhemp = format: in vivo, Amaranthus rudis
Text: as §1

beggarticks = format: in vivo, Bidens pilosa
Text: as §1

barnyardgrass = format: in vivo, Echinochloa crus-galli
Text: as §1

field bindweed = format: in vivo, Convolvulus arvensis
Text: as §1

Row | SMILES | Plant response rating, Ragweed (ragweed; 62 g ai/ha) | Plant response rating, Ragweed (ragweed; 125 g ai/ha) | Plant response rating, Ragweed (ragweed; 250 g ai/ha) | Plant response rating, Panicum, Fall (panicum, fall; 31 g ai/ha) | Plant response rating, Panicum, Fall (panicum, fall; 62 g ai/ha) | Plant response rating, Panicum, Fall (panicum, fall; 125 g ai/ha) | Plant response rating, Dayflower, VA (dayflower, VA; 62 g ai/ha) | Plant response rating, Dayflower, VA (dayflower, VA; 125 g ai/ha) | Plant response rating, Waterhemp (waterhemp; 31 g ai/ha) | Plant response rating, Waterhemp (waterhemp; 62 g ai/ha) | Plant response rating, Waterhemp (waterhemp; 125 g ai/ha) | Plant response rating, Waterhemp (waterhemp; 250 g ai/ha) | Plant response rating, Beggarticks (beggarticks; 125 g ai/ha) | Plant response rating, Beggarticks (beggarticks; 250 g ai/ha) | Plant response rating, Barnyardgrass (barnyardgrass; 31 g ai/ha) | Plant response rating, Barnyardgrass (barnyardgrass; 62 g ai/ha) | Plant response rating, Barnyardgrass (barnyardgrass; 125 g ai/ha) | Plant response rating, Barnyardgrass (barnyardgrass; 250 g ai/ha) | Plant response rating, Field Bindweed (field bindweed; 31 g ai/ha) | Plant response rating, Field Bindweed (field bindweed; 62 g ai/ha) | also measured
1 | O=C1NCC(c2ccc(F)cc2)C1C(=O)Nc1ccccc1F (racemic) [Compound 16] | 0 | 0 | 0 | 0 | 0 | 0 | 0 | 0 | 0 | 0 | 0 | 0 | 0 | 0 | 0 | 0 | 10 | 70 | 0 | 0 | Plant response rating, Panicum, Fall (panicum, fall; 16 g ai/ha): 0; Plant response rating, Dayflower, VA (dayflower, VA; 16 g ai/ha): 0; Plant response rating, Waterhemp (waterhemp; 16 g ai/ha): 0; Plant response rating, Beggarticks (beggarticks; 16 g ai/ha): 0; Plant response rating, Barnyardgrass (barnyardgrass; 16 g ai/ha): 0; Plant response rating, Field Bindweed (field bindweed; 16 g ai/ha): 0; Plant response rating, Field Bindweed (field bindweed; 125 g ai/ha): 0; Plant response rating, Field Bindweed (field bindweed; 250 g ai/ha): 0
2 | O=C1NCC(c2cccc(Br)c2)C1C(=O)Nc1ccccc1F (stereo not shown) [Compound 66] | 0 | 0 | 20 | 0 | 0 | 0 | 0 | 0 | 0 | 0 | 0 | 0 | 0 | 0 | 0 | 20 | 50 | 50 | 0 | 0 | Plant response rating, Ragweed (ragweed; 16 g ai/ha): 0; Plant response rating, Ragweed (ragweed; 31 g ai/ha): 0; Plant response rating, Panicum, Fall (panicum, fall; 16 g ai/ha): 0; Plant response rating, Panicum, Fall (panicum, fall; 250 g ai/ha): 0; Plant response rating, Dayflower, VA (dayflower, VA; 16 g ai/ha): 0; Plant response rating, Dayflower, VA (dayflower, VA; 31 g ai/ha): 0; Plant response rating, Dayflower, VA (dayflower, VA; 250 g ai/ha): 0; Plant response rating, Waterhemp (waterhemp; 16 g ai/ha): 0; Plant response rating, Beggarticks (beggarticks; 16 g ai/ha): 0; Plant response rating, Beggarticks (beggarticks; 31 g ai/ha): 0; Plant response rating, Beggarticks (beggarticks; 62 g ai/ha): 0; Plant response rating, Barnyardgrass (barnyardgrass; 16 g ai/ha): 0; Plant response rating, Field Bindweed (field bindweed; 16 g ai/ha): 0; Plant response rating, Field Bindweed (field bindweed; 125 g ai/ha): 0; Plant response rating, Field Bindweed (field bindweed; 250 g ai/ha): 0
3 | O=C1NCC(c2ccc(C(F)(F)F)cc2)C1C(=O)Nc1ccc(F)c(F)c1F (stereo not shown) [Compound 232] | 75 | 95 | 95 | 35 | 50 | 50 | 0 | 0 | 35 | 80 | 85 | 95 | 20 | 60 | 60 | 70 | 98 | 95 | 0 | 0 | Plant response rating, Ragweed (ragweed; 31 g ai/ha): 35; Plant response rating, Panicum, Fall (panicum, fall; 250 g ai/ha): 60; Plant response rating, Dayflower, VA (dayflower, VA; 31 g ai/ha): 0; Plant response rating, Dayflower, VA (dayflower, VA; 250 g ai/ha): 10; Plant response rating, Beggarticks (beggarticks; 31 g ai/ha): 0; Plant response rating, Beggarticks (beggarticks; 62 g ai/ha): 0; Plant response rating, Field Bindweed (field bindweed; 125 g ai/ha): 40; Plant response rating, Field Bindweed (field bindweed; 250 g ai/ha): 40
